According to ChEMBL document CHEMBL1146226, “Synthesis of desformylflustrabromine and its evaluation as an alpha4beta2 and alpha7 nACh receptor modulator” (Bioorg Med Chem Lett, 2007):

How the values were obtained:
[1] = biological target: Neuronal acetylcholine receptor subunit alpha-7 (Homo sapiens, UniProt P36544); assay: Activity at human alpha7 nACh receptor expressed in Xenopus oocytes assessed as inhibition of acetyl chlone-induced currents by two-electrode voltage clamp method; format: cell-based, Oocyte
Chain of Neuronal acetylcholine receptor subunit alpha-7 (P36544 whole entry): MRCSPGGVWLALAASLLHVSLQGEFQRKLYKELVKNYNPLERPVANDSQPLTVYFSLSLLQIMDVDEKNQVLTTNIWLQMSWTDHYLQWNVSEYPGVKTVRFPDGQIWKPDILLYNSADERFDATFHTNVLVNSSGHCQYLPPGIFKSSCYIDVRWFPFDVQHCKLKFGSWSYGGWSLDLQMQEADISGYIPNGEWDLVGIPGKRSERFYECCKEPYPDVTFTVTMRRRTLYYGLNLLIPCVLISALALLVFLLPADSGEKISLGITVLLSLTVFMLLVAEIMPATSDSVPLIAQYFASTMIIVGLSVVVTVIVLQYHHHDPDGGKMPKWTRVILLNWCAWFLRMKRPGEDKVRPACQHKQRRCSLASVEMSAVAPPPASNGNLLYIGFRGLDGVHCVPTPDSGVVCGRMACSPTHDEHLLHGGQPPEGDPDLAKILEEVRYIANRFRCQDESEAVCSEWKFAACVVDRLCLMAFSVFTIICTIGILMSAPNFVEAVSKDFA

[2] = biological target: T1, Neuronal acetylcholine receptor; alpha4/beta2 (Homo sapiens, UniProt P17787+P43681); assay: Activity at human alpha-4-beta-2 nACh receptor expressed in Xenopus oocytes assessed as inhibition of acetyl chlone-induced currents by two-electrode voltage clamp method; format: cell-based, Oocyte
T1 sequence (P17787 whole entry): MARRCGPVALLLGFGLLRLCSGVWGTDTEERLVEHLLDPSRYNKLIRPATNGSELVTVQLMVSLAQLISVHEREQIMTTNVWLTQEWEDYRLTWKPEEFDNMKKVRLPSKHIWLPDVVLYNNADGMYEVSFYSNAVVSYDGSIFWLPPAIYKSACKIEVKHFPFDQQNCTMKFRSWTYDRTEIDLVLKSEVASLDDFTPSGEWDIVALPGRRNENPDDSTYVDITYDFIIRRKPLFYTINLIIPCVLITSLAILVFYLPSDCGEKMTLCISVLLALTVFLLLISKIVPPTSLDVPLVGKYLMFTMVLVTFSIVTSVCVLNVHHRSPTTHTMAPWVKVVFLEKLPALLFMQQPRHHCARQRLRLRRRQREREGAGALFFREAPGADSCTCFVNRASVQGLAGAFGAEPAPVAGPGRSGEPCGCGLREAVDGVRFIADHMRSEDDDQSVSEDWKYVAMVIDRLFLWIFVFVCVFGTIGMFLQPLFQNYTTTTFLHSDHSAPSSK
T1 sequence (P43681 whole entry): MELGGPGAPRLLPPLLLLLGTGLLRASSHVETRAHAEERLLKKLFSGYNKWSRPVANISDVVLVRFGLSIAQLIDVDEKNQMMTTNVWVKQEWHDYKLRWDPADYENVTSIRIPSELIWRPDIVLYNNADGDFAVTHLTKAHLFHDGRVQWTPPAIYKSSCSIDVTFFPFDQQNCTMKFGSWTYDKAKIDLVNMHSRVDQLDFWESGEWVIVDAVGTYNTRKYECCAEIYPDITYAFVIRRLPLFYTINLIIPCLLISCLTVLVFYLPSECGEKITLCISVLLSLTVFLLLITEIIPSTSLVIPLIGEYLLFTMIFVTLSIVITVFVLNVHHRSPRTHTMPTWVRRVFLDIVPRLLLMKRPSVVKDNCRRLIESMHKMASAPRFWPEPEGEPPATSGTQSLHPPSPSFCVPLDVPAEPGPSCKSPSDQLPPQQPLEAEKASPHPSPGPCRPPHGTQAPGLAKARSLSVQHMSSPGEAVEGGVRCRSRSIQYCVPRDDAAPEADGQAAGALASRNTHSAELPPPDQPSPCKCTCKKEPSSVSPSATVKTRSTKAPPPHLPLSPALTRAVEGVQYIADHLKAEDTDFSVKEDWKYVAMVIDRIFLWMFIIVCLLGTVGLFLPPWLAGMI

[3] = biological target: T1, Neuronal acetylcholine receptor; alpha4/beta2; assay: Activity at human alpha-4-beta-2 nACh receptor expressed in Xenopus oocytes assessed as potentiation of acetyl chlone-induced currents by two-electrode voltage clamp method relative to control; format: cell-based; conditions: Oocyte

| Structure (SMILES) | IC50 [1] [µM] | IC50 [2] [µM] | Activity [3] [%] |
| --- | --- | --- | --- |
| CNCCc1cn(CC=C(C)C)c2cc(Br)ccc12 [DEFORMYLFLUSTRABROMINE B] | 209 | – | – |
| C=CC(C)(C)c1[nH]c2cc(Br)ccc2c1CCNC [DESFORMYLFLUSTRABROMINE] | 44 | 150 | 295 |
